From patent US20190247376A1, “NICOTINIC ACETYLCHOLINE RECEPTOR AGONIST ATTENUATES ILC2-DEPENDENT AIRWAY HYPERREACTIVITY” (University of Southern California, priority 2016, published 2019)

Assays:
[1] = cited from earlier work
[2] = test system: lung ILC2s; assay: Flow cytometry of proliferation, transcription factor and signalling markers in lung ILC2s; assay type: cell-based, mouse; settings: BALB/cByJ mice, rm-IL-33 0.5 μg, agonist 125 μg, three consecutive days
Text: FIGS. 5A-5F: Cholinergic signal attenuates ILC2 proliferation and GATA3 expression. (FIG. 5A) Mean fluorescence intensity of Ki67 and percentage of Ki67+ cells in isolated lung ILC2s, stimulated with IL-33 in the absence and presence of α7nAChR. (FIG. 5B) Mean fluorescence intensity of GATA3 in isolated lung ILC2s, stimulated with IL-33 in the absence and presence of α7nAChR. One representative experiment of two is shown (n=5; Student's t test *, p<0.05; **, p<0.01; ***p<0.001). […] FACS-purified ILC2s from WT mice challenged with rm-IL-33 with or without α7nAChR agonist as described in FIG. 3A were quantified by NanoString nCounter technology. Data range from −1 to +1 for the most reduced and most increased gene expression, respectively. (FIG. 5D) Expression of NF-κB p65 in isolated lung ILC2s from mice challenged with IL-33 with (dotted line) or without (thick line) α7nAChR agonist. The level of isotype-matched stain control is shown as a gray-filled histogram. (FIG. 5E) Expression of phosphorylated IKKα/β (Ser176/180) in isolated lung ILC2s stimulated with IL-33, with (dotted line) or without (thick line) α7nAChR agonist for 24 hours. The level of isotype-matched stain control is shown as a gray-filled histogram. (FIG. 5F) Mean fluorescence intensity of phosphorylated IKKα/β with or without α7nAChR agonist.
FIGS. 9A-9C: Effect of α7nAChR agonist on some marker expressions by ILC2s. A cohort of BALB/cByJ mice were intranasally challenged with rm-IL-33 (0.5 μg) with or without α7nAChR agonist (125 μg) for three consecutive days. Histogram and MFI of CD25 (FIG. 9A), CD127 (FIG. 9B) and ST2 (FIG. 9C) in isolated lung ILC2s. Data are representative of at least two independent experiments and are presented as means±SEM (n=4; Student's t test *, p<0.05).
Biotinylated anti-mouse lineage (CD3e (145-2C11), CD45R (RA3-3B2), Gr-1 (RB6-8C5), CD11c (N418), CD11b (M1/70), Ter119 (TER-119), NK1.1 (PK136), TCR-β (H57-597), TCR-γδ (GL3), and FcεRIα (MAR-1), Streptavidin-FITC, FITC anti-mouse CD3 (145-2C11), BV510 anti-mouse CD4 (RM4-5), APC-Cy7 anti-mouse CD25 (PC61), PE anti-mouse CD25 (PC61), BV421 anti-mouse CD25 (PC61), BV510 anti-mouse CD90.2 (53-2.1), APC anti-mouse CD127 (A7R34), PE-Cy7 anti-mouse CD127 (A7R34), FITC anti-mouse CD45 (30F-11), PE/Cy7 anti-mouse CD45 (30-F11), PE anti-mouse IL-5 (TRFK5), BV421 anti-mouse GATA3 (16E10A23), 7-AAD Viability staining solution, purchased from BioLegend (San Diego, Calif.). PE anti-mouse ST2 (IL-33R, RMST2-2), PerCP-eFluor710 anti-Mouse ST2 (RMST2-2), Streptavidin APC-eFluor780, Alexa Fluor647 labeled anti-IL-4 (clone 11B11), eFluor 450 anti-mouse CD45 (30F-11), eFluor450 anti-CD44 (clone IM7), eFluor-660 anti-mouse Ki-67 (SollA15), PE/Cy7 anti-mouse IL-13 (eBio13A), anti-mouse BCL-2 (10C4), were purchased from eBioscience. Alexa Fluor 488 anti-mouse p65-NF-κB (532301) was purchased from R&D Systems (dilution 1:50). Alexa Fluor 647 conjugated α-bungarotoxin (Invitrogen, San Diego, Calif.). PE anti-mouse Phospho-IKKα/β (Ser 176/180) (16A6) was purchased from Cell Signaling Technology (dilution 1:50). PE anti-rat α7nAChR (319) was purchased from Santa Cruz Biotechnology (dilution 1:50). This antibody has been used to identify this receptor previously in several studies^69. Lineage marker antibodies were used at the dilution of 1:400, unless mentioned otherwise other antibodies were used at the dilution of 1:200.
Intracellular staining was performed using BD Cytofix/Cytoperm kit (BD Bioscience, San Jose, Calif.) according to the manufacturer's instructions. For analysis of GATA3 and Ki-67 expression, freshly isolated cells were fixed and permeabilized using Fixation/Permeabilization buffer kit (eBioscience) according to the manufacturer's instructions and as previously described^70.

Compound | AHR ([1]; HDM-induced asthma model) | Th2 cytokines ([1]; HDM-induced asthma model) | HDM-induced allergic lung inflammation ([1]; asthma model) | expression of CD25, CD127, and ST2 by ILC2s [2]
CN1CCCC1c1cccnc1 (stereo not shown) [nicotine] | not suppressed | suppression | attenuated | 
3-[(3E)-3-[(2,4-dimethoxyphenyl)methylidene]-5,6-dihydro-4H-pyridin-2-yl]pyridine [GTS-21] |  |  |  | did not alter
